Laboratory results reported in paper PMC12693327, “SERAAK2 as a Serotonin Receptor Ligand: Structural and Pharmacological In Vitro and In Vivo Evaluation” (Molecules, 2025).

Assays:
SH-SY5Y cells = assay: MTS cytotoxicity assay in SH-SY5Y cells; assay type: cell-based, human; conditions: 30 µM, 72 h
Procedure: The cytotoxic potential of SERAAK2 was evaluated in two human-derived cell lines chosen for their physiological relevance: HepG2 (hepatocellular carcinoma) and SH-SY5Y (neuroblastoma). […] It is particularly noteworthy that the use of the SERAAK2 compound at a concentration of 30 µM reduces the number of viable cells below the level of the positive control (doxorubicin) at the same concentration (Table 3). […] Under the experimental conditions used, after 72 h of incubation, a fraction of doxorubicin-treated cells remains metabolically active and generates a low signal in the MTS assay. The enhanced signal reduction observed in the MTS assay for the tested compound, compared to doxorubicin, indicates strong cytotoxic activity leading to necrosis of the entire cell population.
An assessment of the cytotoxic potential of SERAAK2 was carried out utilizing the colorimetric MTS assay. This investigation was executed on both HepG2 and SH-SY5Y cell lines, adhering to an identical procedure. The cell lines, sourced from the American Type Culture Collection (Manassas, VA, USA), were cultured under standard conditions (5% CO2, 37 °C) in DMEM/F12 medium (#31330-038, ThermoFisher Scientific, Waltham, MA, USA). The medium was supplemented with 10% Fetal Bovine Serum (FBS, #A5256801, ThermoFisher Scientific) and a Penicillin–Streptomycin solution (#15140-122, ThermoFisher Scientific) until their use in the study. Cells within passage numbers 15 to 25 were plated in 96-well plates at a density of 5000 cells per well in 200 μL of medium and allowed to adhere during a 24 h incubation at 37 °C with 5% CO2. […] The plates were then subsequently returned to the 37 °C incubator, after which absorbance was recorded with a Spark microplate reader; this measurement occurred after 1 h for the HepG2 line and 3 h for the SH-SY5Y line. The ultimate cell viability percentage was determined by comparing results to the control wells, which represented 100% viability, and the wells treated with 10 μM doxorubicin, which were defined as 0% viability. […]

[1] = set-up: method as in PMID 40430337; conditions: cited from earlier work
mice [2] = tested on: mice; set-up: method as in PMID 40430337; conditions: 30–60 mg/kg, rotarod and chimney; cited from earlier work
CYP2D6 = CYP2D6 (Homo sapiens, UniProt P10635); set-up: purchased Promega; method as in PMID 40430337; conditions: cited from earlier work
Chain of CYP2D6 (P10635 whole entry): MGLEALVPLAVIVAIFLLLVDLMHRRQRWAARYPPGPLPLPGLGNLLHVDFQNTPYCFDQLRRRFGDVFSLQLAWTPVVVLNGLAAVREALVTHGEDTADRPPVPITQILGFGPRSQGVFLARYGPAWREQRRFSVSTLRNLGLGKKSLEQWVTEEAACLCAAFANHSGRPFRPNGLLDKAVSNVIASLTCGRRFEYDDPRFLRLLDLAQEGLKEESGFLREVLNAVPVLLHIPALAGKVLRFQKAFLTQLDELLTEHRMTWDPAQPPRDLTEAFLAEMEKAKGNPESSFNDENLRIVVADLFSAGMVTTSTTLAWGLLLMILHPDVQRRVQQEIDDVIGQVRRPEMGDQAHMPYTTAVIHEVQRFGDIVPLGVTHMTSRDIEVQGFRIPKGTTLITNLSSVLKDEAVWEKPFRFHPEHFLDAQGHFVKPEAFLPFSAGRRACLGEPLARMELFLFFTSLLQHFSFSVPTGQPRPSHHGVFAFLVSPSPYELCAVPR

mice [3] = tested on: mice; set-up: method as in PMID 40430337; conditions: 30 mg/kg; cited from earlier work
CYP3A4 = target: T1, CYP3A4 (Homo sapiens, UniProt P08684); set-up: method as in PMID 40430337; conditions: cited from earlier work
T1 construct: purchased Promega
T1 sequence (P08684 whole entry): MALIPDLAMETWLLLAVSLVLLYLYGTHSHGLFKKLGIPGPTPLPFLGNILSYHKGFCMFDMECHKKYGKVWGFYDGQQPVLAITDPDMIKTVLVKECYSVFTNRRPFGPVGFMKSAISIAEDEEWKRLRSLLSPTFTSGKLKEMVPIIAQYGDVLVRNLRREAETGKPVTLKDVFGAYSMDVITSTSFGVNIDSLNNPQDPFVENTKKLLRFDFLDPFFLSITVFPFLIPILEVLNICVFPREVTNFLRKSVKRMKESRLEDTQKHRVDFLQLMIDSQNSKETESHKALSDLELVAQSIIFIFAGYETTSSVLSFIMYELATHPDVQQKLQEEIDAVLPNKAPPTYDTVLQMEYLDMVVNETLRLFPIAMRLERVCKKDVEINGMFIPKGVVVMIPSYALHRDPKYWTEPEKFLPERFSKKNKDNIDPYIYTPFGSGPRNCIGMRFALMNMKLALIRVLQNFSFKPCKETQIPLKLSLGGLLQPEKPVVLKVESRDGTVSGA

mice [4] = tested on: mice; set-up: method as in PMID 40430337; conditions: 30 mg/kg; cited from earlier work; remark: listed apart in the source
mice [5] = tested on: mice; set-up: method as in PMID 40430337; conditions: 30–60 mg/kg; cited from earlier work
mice [6] = tested on: mice; set-up: method as in PMID 40430337; conditions: 30 mg/kg; cited from earlier work; remark: listed apart in the source
mice [7] = assay: Amphetamine-induced hyperactivity; assay type: in vivo; conditions: amphetamine 3 mg/kg, vs saline-treated group, p < 0.05
Procedure: The investigated compound (SER2AAK2) was bought from Enamine (purity over 95%) and in all tests was administered intraperitoneally (i.p.), spread in a drop of Tween 80, and diluted with an aqueous solution of 0.5% methylcellulose (tylose) and injected 60 min before the tests in a volume of 10 mL/kg. Control groups received tylose injections of the same volume and via the same route of administration.
Locomotor activity of the mice was assessed using the Opto-Varimex-4 Auto-Track system (Columbus Instruments, OH, USA). Each mouse was placed individually in a testing cage for 25 min—5 min for acclimatization, followed by 20 min of activity recording. (6a) The total distance traveled (in centimeters) was measured. Cages were cleaned with 10% ethanol between sessions.

Q: Which “Percentage Reduction in the Number of Viable SH-SY5Y Cells [Mean ± SEM]” value (SH-SY5Y cells) does the source give for `COc1cccc2c1C(=O)c1c(O)c3c(c(O)c1C2=O)C[C@@](O)(C(=O)CO)C[C@@H]3O[C@H]1C[C@H](N)[C@H](O)[C@H](C)O1` [DOX, Doxorubicin, reference compound] here?
A: Its value is 102 ± 1%.

Q: With `OC(COC(c1ccccc1)c1ccccc1)CN1CCN(C(c2ccccc2)c2ccccc2)CC1` (stereo not shown) [SERAAK1] as the compound, how does the “Pe (PAMPA)” value [1] read?
A: Its value is < 1e-08 cm/s.

Q: What about the “Motor coordination (rotarod, chimney)” value (mice [2]) of the same compound?
A: Its value is “no impairment (30–60 mg/kg)—stable motor profile”.

Q: And the IC50 (CYP2D6)?
A: The IC50 was 720 nM.

Q: What about the amphetamine-induced hyperactivity (mice [3]) of the same compound?
A: The amphetamine-induced hyperactivity was “↓ hyperactivity (30 mg/kg)”.

Q: And the “CYP3A4 induction (increase of activity)” value (CYP3A4)?
A: Its value is 3.5 fold.

Q: What about the “Elevated plus maze (EPM), open arm time and entries” value (mice [4]) of the same compound?
A: Its value is “↑ open arm time and entries (30 mg/kg)—anxiolytic effect”.

Q: What about the Spontaneous locomotor activity (mice [5]) of the same compound?
A: Its Spontaneous locomotor activity is “no change (30–60 mg/kg)”.

Q: And the “Forced swim test (FST), immobility” value (mice [6])?
A: The value was “↓ immobility (30 mg/kg)—antidepressant-like effect connected with serotonergic modulation”.

Q: For `CC(N)Cc1ccccc1` (stereo not shown) [amphetamine, reference compound], which “locomotor activity after amphetamine alone” value (mice [7]) is on record?
A: The value was “significantly increased the locomotor activity”.
